According to PubChem BioAssay AID1259407 (Chemical Carcinogenesis Research Information System (CCRIS), 2018):
The source made the active and inactive calls. The rule behind the calls is not given here.

Test system: CCRIS mutagenicity, Ames/micronucleus/aberration tests
Assay: CCRIS mutagenicity studies
[1] = Test System: AMES SALMONELLA TYPHIMURIUM, Strain/Indicator: TA98, Metabolic Activation: NONE, Method: STANDARD PLATE
[2] = Test System: AMES SALMONELLA TYPHIMURIUM, Strain/Indicator: TA100, Metabolic Activation: NONE, Method: STANDARD PLATE
[3] = Test System: AMES SALMONELLA TYPHIMURIUM, Strain/Indicator: TA98, Metabolic Activation: NONE, Method: PREINCUBATION

SMILES: COC1=CC(=O)c2c(ncc3c2[nH]c2ccccc23)C1=O
- mutagenic call (Test System: AMES SALMONELLA TYPHIMURIUM, Strain/Indicator: TA97A, Metabolic Activation: NONE, Method: STANDARD PLATE): active; positive
- mutagenic call (Test System: AMES SALMONELLA TYPHIMURIUM, Strain/Indicator: TA97A, Metabolic Activation: RAT LIVER S-9, AROCLOR 1254, Method: STANDARD PLATE): active; positive
- mutagenic call [1]: active; positive
- mutagenic call (Test System: AMES SALMONELLA TYPHIMURIUM, Strain/Indicator: TA98, Metabolic Activation: RAT LIVER S-9, AROCLOR 1254, Method: STANDARD PLATE): active; positive
- mutagenic call [2]: active; positive
- mutagenic call (Test System: AMES SALMONELLA TYPHIMURIUM, Strain/Indicator: TA100, Metabolic Activation: RAT LIVER S-9, AROCLOR 1254, Method: STANDARD PLATE): active; positive
- mutagenic call (Test System: AMES SALMONELLA TYPHIMURIUM, Strain/Indicator: TA102, Metabolic Activation: NONE, Method: STANDARD PLATE): active; positive
- mutagenic call (Test System: AMES SALMONELLA TYPHIMURIUM, Strain/Indicator: TA102, Metabolic Activation: RAT LIVER S-9, AROCLOR 1254, Method: STANDARD PLATE): active; positive

SMILES: O=[N+]([O-])c1cccc(-c2ccc(O)c([N+](=O)[O-])c2)c1
- mutagenic call [3]: active; positive

SMILES: O=[N+]([O-])c1cc([As](=O)(O)O)ccc1O
- mutagenic call (End Point: IN VITRO CHROMOSOMAL ABERRATIONS, Test System: CHO CELLS, Metabolic Activation: RAT, LIVER, S-9, AROCLOR 1254): inactive; negative; testing limited by solubility of the chemical
- mutagenic call (End Point: IN VITRO CHROMOSOMAL ABERRATIONS, Test System: CHO CELLS, Metabolic Activation: RAT, LIVER, S-9, PHENOBARBITAL AND BETA-NAPHTHOFLAVONE): inactive; negative
- mutagenic call (Test System: AMES SALMONELLA TYPHIMURIUM, Strain/Indicator: TA98, Metabolic Activation: HAMSTER, LIVER, S-9, AROCLOR 1254 (10%), Method: PREINCUBATION): inactive; negative
- mutagenic call (Test System: AMES SALMONELLA TYPHIMURIUM, Strain/Indicator: TA98, Metabolic Activation: HAMSTER, LIVER, S-9, AROCLOR 1254, Method: PREINCUBATION): inactive; negative
- mutagenic call [3]: inactive; negative
- mutagenic call (Test System: AMES SALMONELLA TYPHIMURIUM, Strain/Indicator: TA98, Metabolic Activation: RAT, LIVER, S-9, AROCLOR 1254 (10%), Method: PREINCUBATION): inactive; negative
- mutagenic call (Test System: AMES SALMONELLA TYPHIMURIUM, Strain/Indicator: TA98, Metabolic Activation: RAT, LIVER, S-9, AROCLOR 1254, Method: PREINCUBATION): inactive; negative
- mutagenic call (Test System: AMES SALMONELLA TYPHIMURIUM, Strain/Indicator: TA100, Metabolic Activation: HAMSTER, LIVER, S-9, AROCLOR 1254 (10%), Method: PREINCUBATION): inactive; negative
- mutagenic call (Test System: AMES SALMONELLA TYPHIMURIUM, Strain/Indicator: TA100, Metabolic Activation: HAMSTER, LIVER, S-9, AROCLOR 1254, Method: PREINCUBATION): inactive; negative
- mutagenic call (Test System: AMES SALMONELLA TYPHIMURIUM, Strain/Indicator: TA100, Metabolic Activation: NONE, Method: PREINCUBATION): inactive; negative
- mutagenic call (Test System: AMES SALMONELLA TYPHIMURIUM, Strain/Indicator: TA100, Metabolic Activation: RAT, LIVER, S-9, AROCLOR 1254 (10%), Method: PREINCUBATION): inactive; negative
- mutagenic call (Test System: AMES SALMONELLA TYPHIMURIUM, Strain/Indicator: TA100, Metabolic Activation: RAT, LIVER, S-9, AROCLOR 1254, Method: PREINCUBATION): inactive; negative
- mutagenic call (Test System: AMES SALMONELLA TYPHIMURIUM, Strain/Indicator: TA1535, Metabolic Activation: HAMSTER, LIVER, S-9, AROCLOR 1254 (10%), Method: PREINCUBATION): inactive; negative
- mutagenic call (Test System: AMES SALMONELLA TYPHIMURIUM, Strain/Indicator: TA1535, Metabolic Activation: HAMSTER, LIVER, S-9, AROCLOR 1254, Method: PREINCUBATION): inactive; negative
- mutagenic call (Test System: AMES SALMONELLA TYPHIMURIUM, Strain/Indicator: TA1535, Metabolic Activation: NONE, Method: PREINCUBATION): inactive; negative
- mutagenic call (Test System: AMES SALMONELLA TYPHIMURIUM, Strain/Indicator: TA1535, Metabolic Activation: RAT, LIVER, S-9, AROCLOR 1254 (10%), Method: PREINCUBATION): inactive; negative
- mutagenic call (Test System: AMES SALMONELLA TYPHIMURIUM, Strain/Indicator: TA1535, Metabolic Activation: RAT, LIVER, S-9, AROCLOR 1254, Method: PREINCUBATION): inactive; negative
- mutagenic call (Test System: AMES SALMONELLA TYPHIMURIUM, Strain/Indicator: TA1537, Metabolic Activation: HAMSTER, LIVER, S-9, AROCLOR 1254 (10%), Method: PREINCUBATION): inactive; negative
- mutagenic call (Test System: AMES SALMONELLA TYPHIMURIUM, Strain/Indicator: TA1537, Metabolic Activation: HAMSTER, LIVER, S-9, AROCLOR 1254, Method: PREINCUBATION): inactive; negative
- mutagenic call (Test System: AMES SALMONELLA TYPHIMURIUM, Strain/Indicator: TA1537, Metabolic Activation: NONE, Method: PREINCUBATION): inactive; negative
- mutagenic call (Test System: AMES SALMONELLA TYPHIMURIUM, Strain/Indicator: TA1537, Metabolic Activation: RAT, LIVER, S-9, AROCLOR 1254 (10%), Method: PREINCUBATION): inactive; negative
- mutagenic call (Test System: AMES SALMONELLA TYPHIMURIUM, Strain/Indicator: TA1537, Metabolic Activation: RAT, LIVER, S-9, AROCLOR 1254, Method: PREINCUBATION): inactive; negative
- mutagenic call (Test System: MOUSE LYMPHOMA, Strain/Indicator: L5178Y (TK+/TK-), Metabolic Activation: NONE, Method: SUSPENSION/PLATE): active; positive

SMILES: c1ccc2c(c1)COC2
- mutagenic call [3]: active; positive

SMILES: C[C@H]1CCC/C=C/[C@@H]2C[C@H](O)C[C@H]2[C@H](O)/C=C/C(=O)O1
- mutagenic call (Test System: Mouse lymphoma, Strain/Indicator: L5178Y (tk+/tk-), Metabolic Activation: None, Method: Suspension/plate): inactive; negative
- mutagenic call (Test System: Mouse lymphoma, Strain/Indicator: L5178Y (tk+/tk-), Metabolic Activation: Rat, Liver, S-9, Aroclor 1254, Method: Suspension/plate): equivocal

SMILES: O=c1c2ccccc2c(=O)c2c1ccc1c3ccc4c(=O)c5c(ccc6c7ccc8c(=O)c9ccccc9c(=O)c8c7[nH]c65)c(=O)c4c3[nH]c12
- mutagenic call (Test System: Ames Salmonella typhimurium, Strain/Indicator: TA98, Metabolic Activation: None, Method: Preincubation): active; positive
- mutagenic call (Test System: Ames Salmonella typhimurium, Strain/Indicator: TA100, Metabolic Activation: None, Method: Preincubation): inactive; negative
- mutagenic call (Test System: Ames Salmonella typhimurium, Strain/Indicator: TA102, Metabolic Activation: None, Method: Preincubation): inactive; negative
- mutagenic call (Test System: Ames Salmonella typhimurium, Strain/Indicator: TA1535, Metabolic Activation: None, Method: Preincubation): inactive; negative

SMILES: NC(=O)OCc1ccccc1
- mutagenic call (Test System: E. COLI, Strain/Indicator: WP2 UVRA, Metabolic Activation: NONE, Method: FLUCTUATION TEST): inactive; negative

SMILES: CCN(C(C)OC(C)=O)[N+](=O)[O-] (stereo unspecified)
- mutagenic call (Test System: E. COLI, Strain/Indicator: WP2 (HCR-), Metabolic Activation: NONE): active; positive

SMILES: CC(=O)[O-].CC(=O)[O-].[Hg+2]
- mutagenic call (End Point: IN VITRO MICRONUCLEUS, Test System: CHL/IU CELLS, Metabolic Activation: NONE): active; positive
- mutagenic call (Test System: CHINESE HAMSTER OVARY, Strain/Indicator: AS52/6-THIOGUANINE, Metabolic Activation: NONE): active; positive
- mutagenic call (Test System: CHINESE HAMSTER OVARY, Strain/Indicator: CHO-AS52/6-THIOGUANINE, Metabolic Activation: NONE): active; positive

SMILES: COC(=O)c1ccco1
- mutagenic call [1]: inactive; negative
- mutagenic call [2]: inactive; negative
